Measurements published in US12622916B2, “Use of H3K9me3 modulation for enhancing cognitive function” (THE REGENTS OF THE UNIVERSITY OF CALIFORNIA, priority 2015, dated 2026).

Key:
[1] = system: panel of 17 human histone methytransferases; test: Selectivity against a panel of 17 human histone methyltransferases; assay type: biochemical; settings: versus chaetocin A
Source text: In accordance with one or more embodiments of the present invention, the role of H3K9me3 in learning and memory in an animal model of aging using a newly developed analog of the epidithiodiketopiperazine alkaloid chaetocin A called ETP69, illustrated in FIG. 1, is studied.

aged mice = test: Contextual fear conditioning in aged mice; assay type: in vivo; settings: 10 mg/kg i.p., versus aged controls
Description: Fear conditioning: 14 aged (18-20 months) male mice were placed in the fear-conditioning chamber were allowed to explore for 2 minutes before receiving one electric foot shocks (2 seconds, 0.2 mA). Animals were returned to the home cage 2 minutes after the foot shock.

H3K9me3 [2] = test: Histone H3K9 trimethylation level in brain tissue extracts of aged mice; assay type: in vivo
CA1 pyramidal neurons = test: Spine counts (Golgi staining) on CA1 pyramidal neurons of aged mice; assay type: in vivo; settings: 10 mg/kg i.p., 24 hours
Description: Spine counts: In another series of experiments 10 aged mice (20-22 months) were injected with ETP69 (10 mg/kg; i.p) or vehicle (i.p) and 24 hours later the animals were euthanized and the brains were separated into two hemispheres. Right hemisphere was used for Golgi staining and the left was processed for flow synaptometry. Staining was conducted according to manufacturer's information (Golgi-Cox, Bioenna).
Specifically, we counted and classified spines on CA1 pyramidal neurons. Dendrite segments from neurons in CA1 of the hippocampus were imaged by confocal microscopy and a blinded investigator counted and classified dendritic spines according to their morphology. Spines were manually counted and classified as thin, mushroom, or stubby, according to previously described criteria.
For each animal, at least 3 pyramidal neurons and 200 μm of total dendrite length and 250-500 spines were analyzed (n=5 animals per group). All of the neurons were chosen from the dorsal part of the CA1 hippocampal region (according with it essential role in spatial memory) and were completely stained along basal and apical dendrites. FIG. 10 presents representative images showing effect of ETP69 treatment on spines in the CA1 of the hippocampus.

H3K9me3 [3] = test: H3K9me3 level in cultured hippocampal neurons by Western blotting; assay type: cell-based
Description: Next, we examined the effect of ETP69 on H3K9me3 levels in cultured hippocampal neurons. […] FIGS. 14A-B are illustrations of the effect of ETP69 on H3K9me3 levels in 14 DIV hippocampal neurons (FIG. 14A—gel image; FIG. 14B—quantification, n=3, *, p<0.05). As the illustrations show, ETP69 treatment (24 hours) decreased H3K9me3 level measured by Western blotting.

With `CN1C(=O)[C@@]23C[C@](C)(C#N)[C@H](c4ccc5c(c4)OCO5)N2C(=O)[C@]1(C)SS3` (racemic) [ETP69, Rac-(3S,6S,7S,8aS)-6-(benzo[d][1,3]dioxol-5-yl)-2,3,7-trimethyl-1,4-dioxohexahydro-6H-3,8a-epidithiopyrrolo[1,2-a]pyrazine-7-carbonitrile] the “selectivity against a panel of 17 human histone methytransferases compared with chaetocin A” value [1] was “significantly greater selectivity”, the “contextual fear conditioning performance (freezing)” value (aged mice) was “improved performance” and the “H3K9me3 levels in hippocampus” value (H3K9me3 [2]; 10 mg/kg i.p., 24 hours post drug, hippocampal histone extracts) was “decreases in H3K9me3 levels”. For the same molecule, the “H3K9me3 levels in cerebellum” value (H3K9me3 [2]; ETP69-treated versus untreated, cerebellum) was “no significant difference”, the “density of stubby spines” value (CA1 pyramidal neurons; CA1) was “significantly higher density” and the “density of thin spines” value (CA1 pyramidal neurons; CA1) was “significantly higher density”. For the same molecule, the “numbers of mushroom spines/length of dendrite” value (CA1 pyramidal neurons; CA1) was “no difference”, the “increase in total number of spines per length of dendrite compared to controls” value (CA1 pyramidal neurons; CA1 hippocampus) was 45% and the “neuronal H3K9me3 level at 20 nM” value (H3K9me3 [3]; 20 nM, 24 hours) was “greatest decrease”. For the same molecule, the “neuronal H3K9me3 level” value (H3K9me3 [3]; 24 hours treatment, 14 DIV hippocampal neurons) was “dose-dependent decrease”.
